We go through 7 compounds from US9187413B2, “Peripherally restricted FAAH inhibitors” (The Regents of the University of California, priority 2010, dated 2015).

Read-outs that look alike come from different tables or passages of the source.

Data set [1] deals with carrageenan-induced inflammation. In words: Carrageenan-induced hyperalgesia, allodynia and paw edema. The following applies: Swiss mice, 1 mg-kg^-1, i.p., carrageenan. Format: in vivo, mice. As for the experimental part:
Behavioral tests. We measured nocifensive responses elicited by i.p. injection of acetic acid in male Swiss and C57B1/6 (wild-type or FAAH-deficient) mice^40, intraplantar injection of carrageenan in male Swiss mice^20, intraplantar injection of formalin in male Sprague-Dawley rats^41, and sciatic nerve ligation in male Swiss mice^39.
Behavioral tests Acetic acid-induced writhing was measured in Swiss mice or C57B1/6 mice (wild-type and FAAH-deficient), as described^40 with minor modifications. Briefly, the mice were acclimated to the experimental room for 2 h. Each animal was injected with acetic acid (150 μL, 0.6% in saline) and placed into a glass cylinder. Abdominal stretches (extension of body and hind limbs) were counted for 20 min, starting 5 min after acetic acid injection. […] Behavior was scored by an observer blinded to the treatment conditions. Formalin-induced nociception was assessed in Sprague-Dawley rats, as described^41. The rats were singly housed and kept in a shared holding room under a 12:12 h light:dark cycle. They were given free access to food and water, and allowed to acclimate to the facility for a week before testing. […] They were acclimated to the observation container (clear plexiglas box, 29×29×25 cm) for 15 min before receiving an injection of formalin (50 μL, 5% in saline) into the dorsal surface of the right hind paw. Immediately after formalin injection, the rats were returned to the observation container and nocifensive behavior was recorded for 60 min with a video camera. Recordings were analyzed by observers blinded to treatment conditions. Nocifensive behavior was measured continuously for 60 min^41. […] Each 5-min bin was analyzed for time spent (1) lifting and (2) licking or biting the injected paw. Nocifensive behavior was analyzed using the composite pain score weighted scores technique (CPS-WST1,2) calculated for the entire time of observation (0-60 min) and, separately, for the first (0-10 min) and second phase (10-60 min) of the behavioral response^46. The area under the curve (AUC) corresponding to CPS-WST1,2 was calculated using the trapezoidal rule. Paw edema was induced in mice by injection into the right hind paws of 50 μL of sterile saline containing 1% λ-carrageenan. Paw volumes were measured using a plethysmometer (Ugo Basile, Milan, Italy). […] Rimonabant and AM630 (1 mg kg^−1, i.p.) were injected 30 min before carrageenan. Mechanical hyperalgesia was assessed by measuring the latency(s) to withdraw the paw from a constant mechanical pressure exerted onto its dorsal surface. A 15-g calibrated glass cylindrical rod (diameter=10 mm) chamfered to a conical point (diameter=3 mm) was used to exert the mechanical force. The weight was suspended vertically between two rings attached to a stand and was free to move vertically. A cutoff time of 3 min was used. Thermal hyperalgesia was assessed as described^47, measuring the latency to withdraw the hind paw from a focused beam of radiant heat (thermal intensity: infrared 3.0) applied to the plantar surface, using a commercial apparatus (Ugo Basile, Varese, Italy). The cutoff time was set at 30 s. Mechanical allodynia was assessed by applying a graded force to the plantar hind paw surface with a Von Frey filament, using a Dynamic Plantar Anesthesiometer (Ugo Basile). The cutoff force was set at 50 g.

In data set [2] the target is FAAH (Mus musculus (Mouse), UniProt O08914). The experiment in a line: FAAH inhibition ex vivo after systemic administration in mice. The conditions noted are these: for ability to access the brain after systemic administration: mice, 1 mg-kg^-1, i.p.; for inhibition at 1 mg/kg: mouse, ip, ex vivo 1 h after a single injection in mice (1 mg-kg^-1, i.p.). As for the experimental part:
Drug preparation for in vivo experiments Drugs were dissolved in polyethylene glycol 400/Tween-80/saline (1/1/18; by volume) and administered by i.p. (5-10 mL-kg^−1) or s.c. injection (10 mL-kg^−1).

Data set [3] has as its target rat brain FAAH (Rattus norvegicus (Rat), UniProt P97612). The conditions noted are these: membrane preparation of rat brain. The text has this: Enzyme assays. We conducted standard FAAH and monoacylglycerol lipase assays as described^15,37, using as substrates [^3H]-anandamide (a gift of the National Institute on Drug Abuse) and 2-oleoyl-sn-glycerol (Nu-Check Prep, Elysian, Minn.), respectively.

The test system of data set [4] is Fos protein. The experiment in a line: Formalin-induced Fos expression in lumbar spinal cord. The format is in vivo. The following applies: rats, 2 mg-kg^-1, i.p., administered without URB937. The method, then: Fos expression. We measured Fos protein levels by quantitative immunocytochemistry^5 on slices of lumbar (L4/L5) spinal cord from male Sprague-Dawley rats.
Fos immunohistochemistry Two hours after formalin injection into the dorsal paw, rats received a lethal dose of Nembutal (50 mg-mL^−1). They were perfused through the heart with 100 mL of 1% heparinized phosphate buffered saline (PBS) followed by 300 mL of ice-cold 4% paraformaldehyde. The lumbar-sacral region of the spinal cord was collected from each rat. Spinal cords were post fixed in 4% paraformaldehyde at 4° C. for 24 h and then cryoprotected in 30% sucrose at 4° C. for 24-48 hours. Spinal cords were cryostat-cut into 40 μm transverse sections at the level of the lumbar enlargement (L4/L5). Free floating alternating sections were kept in a series of wells filled with PBS. Every fourth section was processed for Fos immunoreactivity to ensure that the same cell would not be counted twice. Endogenous peroxidases were inactivated by incubation in hydrogen peroxide. […]
Selection of sections and quantification of the number of Fos-positive cells was performed by an observer blinded to experimental conditions. […] Using Image J, Fos expressing cells were counted in each subdivision, regardless of staining intensity, by an observer blinded to experimental treatments.

Where [5] appears, read: brain, read-out: FAAH Inhibition in brain (%).
Where [6] appears, read: liver, read-out: FAAH Inhibition in liver (%).

FAAH, sequence (O08914 whole entry): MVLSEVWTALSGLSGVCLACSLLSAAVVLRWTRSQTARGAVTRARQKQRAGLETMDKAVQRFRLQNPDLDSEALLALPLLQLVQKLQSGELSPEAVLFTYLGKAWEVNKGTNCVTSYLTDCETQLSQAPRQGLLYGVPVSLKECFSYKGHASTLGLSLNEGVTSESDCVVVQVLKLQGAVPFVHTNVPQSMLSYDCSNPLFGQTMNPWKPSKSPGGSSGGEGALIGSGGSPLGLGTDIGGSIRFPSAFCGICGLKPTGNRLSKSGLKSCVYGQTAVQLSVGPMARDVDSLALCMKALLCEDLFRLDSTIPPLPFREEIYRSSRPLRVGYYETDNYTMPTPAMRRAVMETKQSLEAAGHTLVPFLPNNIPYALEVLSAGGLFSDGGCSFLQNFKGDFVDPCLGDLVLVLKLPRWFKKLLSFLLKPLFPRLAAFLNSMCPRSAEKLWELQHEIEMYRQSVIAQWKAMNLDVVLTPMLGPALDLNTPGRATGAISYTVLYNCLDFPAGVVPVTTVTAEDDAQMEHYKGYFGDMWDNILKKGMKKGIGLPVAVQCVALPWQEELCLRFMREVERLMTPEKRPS
rat brain FAAH, sequence (P97612 whole entry): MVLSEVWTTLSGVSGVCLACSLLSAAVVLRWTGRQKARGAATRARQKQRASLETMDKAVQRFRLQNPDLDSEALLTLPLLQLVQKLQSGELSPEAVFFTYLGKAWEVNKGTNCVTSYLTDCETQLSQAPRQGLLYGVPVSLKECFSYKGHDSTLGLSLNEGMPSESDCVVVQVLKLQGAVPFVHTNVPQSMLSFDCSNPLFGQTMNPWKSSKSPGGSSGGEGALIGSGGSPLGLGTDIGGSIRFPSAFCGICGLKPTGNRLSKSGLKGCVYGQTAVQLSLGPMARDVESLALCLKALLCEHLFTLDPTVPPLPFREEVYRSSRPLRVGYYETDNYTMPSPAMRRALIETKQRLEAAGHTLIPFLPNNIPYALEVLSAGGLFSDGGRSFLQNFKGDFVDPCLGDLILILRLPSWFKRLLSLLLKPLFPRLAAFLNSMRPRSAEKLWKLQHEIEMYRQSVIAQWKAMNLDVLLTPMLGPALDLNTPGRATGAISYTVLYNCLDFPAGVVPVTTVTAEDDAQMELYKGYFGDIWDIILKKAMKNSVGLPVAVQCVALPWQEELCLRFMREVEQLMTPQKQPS

With `COc1ccc(C(=O)c2c(C)n(CCN3CCOCC3)c3cc(I)ccc23)cc1` [AM630, reference compound], the “hyperalgesia and allodynia in contralateral (non-injected) paws” value in data set [1] is “had no effect”.
In general, inhibition refers to the share of the control response that was lost under treatment. In general, IC50 refers to the concentration at which inhibition is half-maximal. Read a low IC50 as higher potency. `NC(=O)c1cccc(-c2cc(OC(=O)NC3CCCCC3)ccc2F)c1` [Compound 1e]: the “ability to access the brain after systemic administration” value (from here on “ability to access the brain”) in data set [2] is reported as “readily entered the brain”. The inhibition at 1 mg/kg in data set [2] (setting [5]) is 89.7 ± 1.3%; in data set [2] (setting [6]), 90.7 ± 1.2%. Besides, the IC50 in data set [3] amounted to 49.7 ± 5.8 nM.
The like results for `NC(=O)c1cccc(-c2cc(OC(=O)NC3CCCCC3)ccc2N)c1` [Compound 1f] were, in that order, “largely excluded”, 23.2 ± 2.1%, 92.2 ± 0.6% and 42.5 ± 4.2 nM.
Turning to `COc1ccc(OC(=O)NC2CCCCC2)cc1-c1cccc(C(N)=O)c1` [Compound 1c], the “ability to access the brain” value in data set [2] is “readily entered the brain”.
On to `NC(=O)c1cccc(-c2cccc(OC(=O)NC3CCCCC3)c2)c1` [Compound 1a, cyclohexylcarbamic acid 3′-carbamoylbiphenyl-3-yl ester, reference compound], for which the inhibition at 1 mg/kg in data set [2] (setting [5]) turned out to be 96.2 ± 0.4%.
As to `Cc1c(C(=O)NN2CCCCC2)nn(-c2ccc(Cl)cc2Cl)c1-c1ccc(Cl)cc1` [rimonabant, reference compound], in data set [4], the “formalin-induced Fos levels, antagonist without URB937” value is on record as “did not significantly alter Fos levels”. Also, in data set [1], the “hyperalgesia and allodynia in contralateral (non-injected) paws” value is “had no effect”.
On to `Cc1ccc(OC(=O)NC2CCCCC2)cc1-c1cccc(C(N)=O)c1` [Compound 1d], for which, in data set [2], the “ability to access the brain” value was “readily entered the brain”. The figures for the inhibition at 1 mg/kg in data set [2] (setting [5]) and in data set [2] (setting [6]) were 91.9 ± 1.5% and 93 ± 1.1%, respectively. For the same compound, the IC50 in data set [3] came to 20.5 ± 0.6 nM.
